Data published in ChEMBL document CHEMBL1130625, “Synthesis and antibacterial activity of novel 7-(3-substituted-3 or 4-trifluoromethyl-1-pyrrolidinyl)-8-methoxyfluoroquinolones” (1998).
In brackets after ≈: the same amount, converted by molar mass. Values belong to the molecule of their own block, whether it stands above or below them.

Key:
[1] = system: Pseudomonas aeruginosa; experiment: Compound was tested for antibacterial activity against gram negative Pseudomonas aeruginosa AK109; assay type: functional
[2] = system: Streptococcus pyogenes; experiment: Compound was tested for antibacterial activity against gram positive Streptococcus pyogenes cook
[3] = system: Escherichia coli; experiment: Compound was tested for antibacterial activity against gram negative Escherichia coli NIHJ JC-2; assay type: functional
[4] = system: Citrobacter freundii; experiment: Compound was tested for antibacterial activity against gram negative Citrobacter freundii No.7; assay type: functional
[5] = system: Proteus vulgaris; experiment: Compound was tested for antibacterial activity against gram negative Proteus vulgaris No.33; assay type: functional
[6] = system: Pseudomonas aeruginosa; experiment: Compound was tested for antibacterial activity against gram negative Pseudomonas aeruginosa K-13; assay type: functional
[7] = system: Staphylococcus aureus; experiment: Compound was tested for antibacterial activity against gram positive Staphylococcus aureus KP-90-3; assay type: functional
[8] = system: Escherichia coli; experiment: Compound was tested for antibacterial activity against gram negative Escherichia coli CSH2/RK1; assay type: functional
[9] = system: Serratia marcescens; experiment: Compound was tested for antibacterial activity against gram negative Serratia marcescens No.16-2; assay type: functional
[10] = system: Burkholderia cepacia; experiment: Compound was tested for antibacterial activity against gram negative Burkholderia cepacia 23; assay type: functional
[11] = system: Proteus vulgaris; experiment: Compound was tested for antibacterial activity against gram negative Proteus vulgaris KS-134; assay type: functional
[12] = system: Acinetobacter calcoaceticus; experiment: Compound was tested for antibacterial activity against gram negative Acinetobacter calcoaceticus No.4; assay type: functional
[13] = system: Klebsiella oxytoca; experiment: Compound was tested for antibacterial activity against gram negative Klebsiella oxytoca GN 10650; assay type: functional
[14] = system: Pseudomonas aeruginosa; experiment: Compound was tested for antibacterial activity against gram negative Pseudomonas aeruginosa KP-254; assay type: functional
[15] = system: Proteus mirabilis; experiment: Compound was tested for antibacterial activity against gram negative Proteus mirabilis JY-10; assay type: functional
[16] = system: Staphylococcus aureus; experiment: Compound was tested for antibacterial activity against gram positive Staphylococcus aureus JS-1; assay type: functional
[17] = system: Pseudomonas aeruginosa; experiment: Compound was tested for antibacterial activity against gram negative Pseudomonas aeruginosa PAO1; assay type: functional
[18] = system: Escherichia coli; experiment: Compound was tested for antibacterial activity against gram negative Escherichia coli CSH2/RE45; assay type: functional
[19] = system: Enterococcus faecalis; experiment: Compound was tested for antibacterial activity against gram positive Enterococcus faecalis 1373; assay type: functional
[20] = system: Escherichia coli; experiment: Compound was tested for antibacterial activity against gram negative Escherichia coli ML4707; assay type: functional
[21] = system: Klebsiella pneumoniae; experiment: Compound was tested for antibacterial activity against gram negative Klebsiella pneumoniae KC-1; assay type: functional
[22] = system: Klebsiella pneumoniae; experiment: Compound was tested for antibacterial activity against gram negative Klebsiella pneumoniae No.42; assay type: functional
[23] = system: Staphylococcus aureus; experiment: Compound was tested for antibacterial activity against gram positive Staphylococcus aureus smith; assay type: functional
[24] = system: Staphylococcus aureus; experiment: Compound was tested for antibacterial activity against gram positive Staphylococcus aureus FDA 209P JC-1; assay type: functional
[25] = system: Enterobacter cloacae; experiment: Compound was tested for antibacterial activity against gram negative Enterobacter cloacae Nek39; assay type: functional
[26] = system: Citrobacter freundii; experiment: Compound was tested for antibacterial activity against gram negative Citrobacter freundii KP-29; assay type: functional
[27] = Pseudomonas aeruginosa, read-out: MIC
[28] = Streptococcus pyogenes, read-out: MIC
[29] = Escherichia coli, read-out: MIC
[30] = Citrobacter freundii, read-out: MIC
[31] = Proteus vulgaris, read-out: MIC
[32] = Staphylococcus aureus, read-out: MIC
[33] = Serratia marcescens, read-out: MIC
[34] = Burkholderia cepacia, read-out: MIC
[35] = Acinetobacter calcoaceticus, read-out: MIC
[36] = Klebsiella oxytoca, read-out: MIC
[37] = Proteus mirabilis, read-out: MIC
[38] = Enterococcus faecalis, read-out: MIC
[39] = Klebsiella pneumoniae, read-out: MIC
[40] = Enterobacter cloacae, read-out: MIC

MIC [1, 27]: 12.5 µg/mL (≈ 28.1 µM)
MIC [2, 28]: 0.39 µg/mL (≈ 0.878 µM)
MIC [3, 29]: 1.56 µg/mL (≈ 3.51 µM)
MIC [4, 30]: 25 µg/mL (≈ 56.3 µM)
MIC [5, 31]: 1.56 µg/mL (≈ 3.51 µM)
MIC [6, 27]: 50 µg/mL (≈ 113 µM)
MIC [7, 32]: 3.13 µg/mL (≈ 7.04 µM)
MIC [8, 29]: 25 µg/mL (≈ 56.3 µM)
MIC [9, 33]: 12.5 µg/mL (≈ 28.1 µM)
MIC [10, 34]: 3.13 µg/mL (≈ 7.04 µM)
MIC [11, 31]: 100 µg/mL (≈ 225 µM)
MIC [12, 35]: 1.56 µg/mL (≈ 3.51 µM)
MIC [13, 36]: 3.13 µg/mL (≈ 7.04 µM)
MIC [14, 27]: > 100 µg/mL
MIC [15, 37]: 0.39 µg/mL (≈ 0.878 µM)
MIC [16, 32]: 0.05 µg/mL (≈ 0.113 µM)
MIC [17, 27]: 12.5 µg/mL (≈ 28.1 µM)
MIC [18, 29]: 25 µg/mL (≈ 56.3 µM)
MIC [19, 38]: 0.39 µg/mL (≈ 0.878 µM)
MIC [20, 29]: 0.05 µg/mL (≈ 0.113 µM)
MIC [21, 39]: 1.56 µg/mL (≈ 3.51 µM)
MIC [22, 39]: 3.13 µg/mL (≈ 7.04 µM)
MIC [23]: 0.025 µg/mL (≈ 0.0563 µM)
MIC [24, 32]: 0.1 µg/mL (≈ 0.225 µM)
MIC [25, 40]: 6.25 µg/mL (≈ 14.1 µM)
MIC [26, 30]: > 100 µg/mL
Compound: COc1c(N2CC[C@@](CO)(C(F)(F)F)C2)c(F)cc2c(=O)c(C(=O)O)cn(C3CC3)c12

MIC [1, 27]: 3.13 µg/mL (≈ 7.04 µM)
MIC [2, 28]: 0.05 µg/mL (≈ 0.113 µM)
MIC [3, 29]: 0.39 µg/mL (≈ 0.878 µM)
MIC [4, 30]: 6.25 µg/mL (≈ 14.1 µM)
MIC [5, 31]: 0.39 µg/mL (≈ 0.878 µM)
MIC [6, 27]: 25 µg/mL (≈ 56.3 µM)
MIC [7, 32]: 0.39 µg/mL (≈ 0.878 µM)
MIC [8, 29]: 3.13 µg/mL (≈ 7.04 µM)
MIC [9, 33]: 3.13 µg/mL (≈ 7.04 µM)
MIC [10, 34]: 1.56 µg/mL (≈ 3.51 µM)
MIC [11, 31]: 100 µg/mL (≈ 225 µM)
MIC [12, 35]: 0.2 µg/mL (≈ 0.45 µM)
MIC [13, 36]: 0.78 µg/mL (≈ 1.76 µM)
MIC [14, 27]: > 100 µg/mL
MIC [15, 37]: 0.1 µg/mL (≈ 0.225 µM)
MIC [16, 32]: ≤ 0.006 µg/mL
MIC [17, 27]: 3.13 µg/mL (≈ 7.04 µM)
MIC [18, 29]: 3.13 µg/mL (≈ 7.04 µM)
MIC [19, 38]: 0.1 µg/mL (≈ 0.225 µM)
MIC [20, 29]: 0.2 µg/mL (≈ 0.45 µM)
MIC [21, 39]: 0.39 µg/mL (≈ 0.878 µM)
MIC [22, 39]: 0.78 µg/mL (≈ 1.76 µM)
MIC [23]: ≤ 0.006 µg/mL
MIC [24, 32]: 0.013 µg/mL (≈ 0.0293 µM)
MIC [25, 40]: 1.56 µg/mL (≈ 3.51 µM)
MIC [26, 30]: > 100 µg/mL
Compound: COc1c(N2C[C@H](CO)[C@H](C(F)(F)F)C2)c(F)cc2c(=O)c(C(=O)O)cn(C3CC3)c12

MIC [1, 27]: 6.25 µg/mL
MIC [2, 28]: 0.025 µg/mL
MIC [3, 29]: 0.2 µg/mL
MIC [4, 30]: 1.56 µg/mL
MIC [5, 31]: 0.39 µg/mL
MIC [6, 27]: 50 µg/mL
MIC [7, 32]: 0.78 µg/mL
MIC [8, 29]: 3.13 µg/mL
MIC [9, 33]: 0.78 µg/mL
MIC [10, 34]: 1.56 µg/mL
MIC [11, 31]: 50 µg/mL
MIC [12, 35]: 0.2 µg/mL
MIC [13, 36]: 0.2 µg/mL
MIC [14, 27]: > 100 µg/mL
MIC [15, 37]: 0.2 µg/mL
MIC [16, 32]: 0.013 µg/mL
MIC [17, 27]: 6.25 µg/mL
MIC [18, 29]: 1.56 µg/mL
MIC [19, 38]: 0.05 µg/mL
MIC [20, 29]: 0.05 µg/mL
MIC [21, 39]: 0.1 µg/mL
MIC [22, 39]: 0.39 µg/mL
MIC [23]: ≤ 0.006 µg/mL
MIC [24, 32]: 0.05 µg/mL
MIC [25, 40]: 1.56 µg/mL
MIC [26, 30]: 50 µg/mL
Compound: COc1c(N2C[C@H](CN)[C@@H](C(F)(F)F)C2)c(F)cc2c(=O)c(C(=O)O)cn(C3CC3)c12.Cl

MIC [1]: 1.56 µg/mL
MIC [2]: 0.013 µg/mL
MIC [3]: 0.025 µg/mL
MIC [4]: 0.78 µg/mL
MIC [5]: 0.05 µg/mL
MIC [6]: 12.5 µg/mL
MIC [7]: 0.39 µg/mL
MIC [8]: 0.39 µg/mL
MIC [9]: 0.39 µg/mL
MIC [10]: 1.56 µg/mL
MIC [11]: 50 µg/mL
MIC [12]: 0.1 µg/mL
MIC [13]: 0.1 µg/mL
MIC [14]: 100 µg/mL
MIC [15]: 0.05 µg/mL
MIC [16]: <0.006 µg/mL
MIC [17]: 1.56 µg/mL
MIC [18]: 0.39 µg/mL
MIC [19]: 0.025 µg/mL
MIC [20]: 0.025 µg/mL
MIC [21]: 0.05 µg/mL
MIC [22]: 0.1 µg/mL
MIC [24]: 0.025 µg/mL
MIC [25]: 0.39 µg/mL
MIC [26]: 12.5 µg/mL
Compound: COc1c(N2C[C@@H](CN)[C@H](C(F)(F)F)C2)c(F)cc2c(=O)c(C(=O)O)cn(C3CC3)c12.Cl
